Measured values taken from US11471477B2, “Methods for treating triple-negative breast cancer” (Chan Zuckerberg Biohub, Inc., priority 2017, dated 2022).

Tests used:
HS578T cells = assay: Cell viability assay (WST-1), shRNA-transduced cells; type: cell-based, human; details: 4 days after transduction; normalized to control shRNA
Method: (§1) For in vitro cell line experiments, concentrated lentiviral supernatant (to achieve an MOI of 3) was mixed with cells at the time of seeding. Cells were monitored by visualization of RFP under fluorescence microscopy. All flow cytometry analyses were performed after at least 72 hours of infection.
(§2) For cell lines treated with chemical or infected with lentivirus, WST-1 Cell Proliferation Reagent (Roche) was added at 1:10 (v/v) final dilution to each well per manufacturer's instructions. Cells were subsequently incubated at 37° C. and 5% CO2. Between 1 and 4 hours after addition of reagent, plates were analyzed on a SpectraMax M3 Bioanalyzer (Molecular Devices). Absorbance for each well was measured at 450 nm (signal wavelength) and 650 nm (reference wavelength). Thus, the signal for each experimental sample was Absorbanceexperimental (A450nm-A650nm). To correct for the effect of media, Absorbancebackground (A450nm-A650nm) was obtained by measuring absorbance in a blank well. Thus, the background corrected signal for each sample Acorrected=Absorbanceexperimental−Absorbancebackground. All Acorrected values for the knockdowns were normalized to the Acorrected value for the control sample to obtain a ‘Relative Viability’.

MDA-MB231 cells = assay: as above; type: cell-based, human; details: 4 days after transduction; normalized to control shRNA
Method: as §1, §2

MDA-MB468 cells = assay: as above; type: cell-based, human; details: 4 days after transduction; normalized to control shRNA
Method: as §1, §2

[1] = test system: human mammary epithelial cells (HMEC); assay: Cell viability assay (WST-1), non-transformed mammary cells; type: cell-based; details: 4 days after transduction; normalized to control shRNA
Method: as §1, §2

PDX-T1 tumor cells = assay: Organoid colony formation assay; type: cell-based, human; details: colonies counted 2 weeks after transduction
Method: (§3) For in vivo PDX tumor growth and organoid colony formation experiments, concentrated lentiviral supernatant (to achieve an MOI of 10) was mixed with single cell suspensions of PDX tumor cells in organoid media with 4 μg/mL of Polybrene (Sigma-Aldrich). Organoid media consisted of: Advanced DMEM/F12 (Invitrogen), 10% FBS (Hyclone), 2.5% growth factor-reduced Matrigel (BD), 10 ng/mL mouse EGF (R&D), 100 ng/mL Noggin (R&D), 250 ng/mL RSPO-1 (R&D), 1× B27 (Invitrogen), 1× N2 (Invitrogen), and PSA (Life Technologies). Cells were then spinoculated by centrifuging at 15° C. for 2 hours at 1200×g. Cells were resuspended by pipetting and left overnight in 48-well ultra-low attachment cell culture plates (Corning).
For organoid colony formation assays, cells were transferred the next day to matrigel. For in vivo PDX assays, approximately 75% of the cells were injected into NSG mice as described in the PDX tumor engraftment section. […] Dissociated cells were resuspended in flow cytometry buffer and analyzed by flow cytometry to determine the ‘baseline’ RFP percentage for cells that were injected into the mice.
Irradiated L1-Wnt3a feeder cells (generous gift of Dr. Roel Nusse) were mixed with growth factor reduced matrigel (BD Biosciences) and allowed to solidify at 37° C. […] Colonies were counted under fluorescence microscopy. Only RFP positive colonies (which represent transduced cells) were counted. […]

CDK19 = assay: Quantitative PCR RNA expression analysis of CDK19 knockdown; type: cell-based, human; details: normalized to control shRNA and beta-actin
Method: Cells were lysed with Trizol (Life Technologies) and RNA was extracted according to the manufacturer's instruction. RNA was then treated with DNAsel to remove contaminating genomic DNA. RNA was reverse transcribed to cDNA using SuperScript III First Strand Synthesis kit (Life Technologies) according to the manufacturer's instructions. TaqMan Gene Expression Master Mix (Applied Biosystems) and the following TaqMan Gene Expression Assays (Applied Biosystems) were used following manufacturer's instructions: ACTB, Hs00357333_g1; CDK19, Hs01039931_m1; CDK8, Hs00993274_m1. Data was collected on a 7900HT Fast Real-Time PCR System (Applied Biosystems) and data analyzed with SDS 2.4 software (Applied Biosystems). Gene expression data in each sample was normalized against the expression of beta-actin.

PDX-T1 [2] = assay: PDX tumor growth in NSG mice, percentage of RFP positive cells by flow cytometry; type: in vivo; details: normalized to control shRNA
Method: as §3
(§4) For organoid colony formation assays, cells were transferred the next day to matrigel. For in vivo PDX assays, approximately 75% of the cells were injected into NSG mice as described in the PDX tumor engraftment section. The remainder 25% of cells were plated on matrigel and grown in organoid media for 72 hours until the cells became RFP positive. At that point media was removed and exchanged for dispase and incubated for 2-3 h until the matrigel dissolved. Dissociated cells were resuspended in flow cytometry buffer and analyzed by flow cytometry to determine the ‘baseline’ RFP percentage for cells that were injected into the mice.
(§5) Single cell suspensions of PDX cells were resuspended in 50% (v/v) mixtures of normal matrigel (BD Biosciences) and flow cytometry buffer in a total volume of 50-100 μL. Using an insulin syringe, cells were injected subcutaneously into the nipple of female NSG mice at the fourth abdominal fat pad. For limiting dilution assays, the specific number of cells injected into the mice were determined by flow cytometry and secondarily by manual counting with a hemocytometer.
(§6) Flow cytometry was performed with a 100 μm nozzle on a Flow Cytometry Aria II (BD Biosciences) with Diva software (BD Biosciences). Data analysis was performed using Flowjo software (Flowjo). For all experiments, side scatter and forward scatter profiles (area and width) were used to eliminate debris and cell doublets. Dead cells were eliminated by excluding 4′,6-diamidino-2-phenylindole (DAPI)-positive cells (Molecular Probes). For PDX tumor cells, they were gated for GFP positivity and then for RFP positivity. RFP percentage is the percentage of GFP positive cells that are also RFP positive. For each sample, we obtain the RFP fraction that is: the RFP % in the tumor divided by the baseline RFP % (see ‘Lentivirus infection’ section). RFP fraction for each sample is then normalized to the RFP fraction for the shRNA control sample which is set at 100% to obtain the ‘Normalized % RFP’.

PDX-T2 = assay: as above; type: in vivo; details: normalized to control shRNA
Method: as §3, §4, §5, §6

PDX-T3 = assay: as above; type: in vivo; details: normalized to control shRNA
Method: as §3, §4, §5, §6

PDX-T4 [3] = assay: as above; type: in vivo
Method: as §3, §4, §5, §6

PDX-T1 [4] = assay: RFP positive lung metastases in mice bearing PDX tumor xenografts; type: in vivo, NSG mice
Description: (§7) Xenograft tumors and mice lungs were surgically resected after the mice were euthanized. A 3 to 4 mm section is cut from each tumor and saved in ice cold PBS for imaging. The mice lungs and tumors were imaged on a M205FA Fluorescence Stereo Microscope (Leica) and images were captured with a DFC310FX camera (Leica).
(§8) Percentage of mice with RFP positive lung metastases from mice bearing PDX-T1 (FIG. 1K) or PDX-T4 (FIG. 1L) tumor xenografts are shown. Number of mice with RFP positive lung metastases and total number of mice in each treatment group is shown as a fraction for each condition. PDX tumor cells were transduced with either control shRNA or CDK19 targeting shRNA (shCDK19-1, shCDK19-2) (For FIG. 1K, n=9, experiment performed three times; For […], n=3, experiment performed once). […] In FIG. 1N, bright field images (left column) show gross lung morphology, FITC images (middle column) identify metastatic tumor cells labeled with GFP, and Texas-Red images (right column) identify shRNA-transduced metastatic cells labeled with RFP. We also tested the effect of CDK19 knockdown on PDX-T4, an aggressive PDX obtained from the brain metastasis of a patient with a chemotherapy-resistant inflammatory breast cancer.

PDX-T4 [5] = assay: as above; type: in vivo, NSG mice
Description: as §7, §8

PDX-T1 [6] = assay: Survival of mice engrafted with shRNA-transduced PDX-T1 xenografts; type: in vivo, NSG mice; details: mice with PDX-T1 tumors; vs control shRNA; sacrificed when tumor exceeded 17 mm
Description: We explored the effect of CDK19 knockdown on the growth of pre-established organoids in vitro and in pre-established PDX tumors in vivo. This aimed to model the treatment of patients' pre-existing tumors. […] In FIGS. 4A and 4B, number of organoid colonies at Day 0 (FIG. 4A) and Day 16 (FIG. 4B) after initiating doxycycline treatment is shown, ****P<0.0001; ns is P>0.05 (mean s.d., n=6, experiment performed twice, P values determined by unpaired t-test). […] In FIGS. 4C and 4D, the growth of pre-established tumors in the doxycycline fed NSG mice and control NSG mice are shown for inducCDK19KD-PDX-T1, ****P<0.0001; ***P<0.001 (mean±s.d., n=5, experiment performed twice, P values determined by unpaired t-test) (FIG. 4C) and inducCDK19KD-PDX-T3, ****P<0.0001; ***P<0.001 (mean±s.d., n=5, experiment performed once, P values determined by unpaired t-test) (FIG. 4D). CDK19 shRNA induced tumors were ultimately 82% smaller in inducCDK19KD-PDX-T1 tumors and 38% smaller in inducCDK19KD-PDX-T3 tumors when compared to control tumors (FIGS. 4C and 4D). […] Shown in FIG. 4E are Kaplan-Meir survival curves for mice engrafted with PDX-T1 xenografts transduced with control shRNA (black line), shCDK19-1 (solid gray line) or shCDK19-2 (dashed gray line). Mice were followed with weekly measurements of tumor diameters. Mice were sacrificed when the longest diameter of their tumor exceeded 17 mm. […]

Substance | Relative viability of HS578T cells (HS578T cells) | Relative viability of MDA-MB231 cells (MDA-MB231 cells) | Relative viability of MDA-MB468 cells (MDA-MB468 cells) | Relative viability of HMEC cells [1] | Formation of organoid colonies (PDX-T1 tumor cells) | Expression of CDK19 by RT-qPCR (CDK19; MDA-MB231) | Expression of CDK19 by RT-qPCR (CDK19; MDA-MB468) | Expression of CDK19 by RT-qPCR (CDK19; PDX-T1) | Percentage of RFP positive cells in tumors (PDX-T1 [2]) | Percentage of RFP positive cells in tumors (PDX-T2) | Percentage of RFP positive cells in tumors (PDX-T3) | Growth of the PDX (PDX-T4 [3]) | RFP positive lung metastases (PDX-T1 [4]) | RFP positive lung metastases (PDX-T4 [5]) | Overall survival (PDX-T1 [6])
shCDK19-1: CDK19 targeting shRNA, sense strand 5′-GCGAGAATTGAAGTACCTTAA-3′ (SEQ ID NO: 1), lentiviral vector (sense GCGAGAATTGAAGTACCTTAA; listed as Homo sapiens) | significantly decreased the viability | significantly decreased the viability | significantly decreased the viability | neither of the two CDK19 knockdowns affected the viability | inhibited the formation of organoid colonies | effectively silences CDK19 | effectively silences CDK19 | effectively silences CDK19 | significant reduction in the percentage of RFP positive cells | significant reduction in the percentage of RFP positive cells | significant reduction in the percentage of RFP positive cells | inhibited both the growth of the PDX | eliminated the detection of any lung metastases | prevented transduced (RFP positive) TNBC cells from metastasizing to the lungs | significantly longer
shCDK19-2: CDK19 targeting shRNA, sense strand 5′-ACCAGCAAATATCCTAGTAAT-3′ (SEQ ID NO: 2), lentiviral vector (sense ACCAGCAAATATCCTAGTAAT; listed as Homo sapiens) | significantly decreased the viability | significantly decreased the viability | significantly decreased the viability | neither of the two CDK19 knockdowns affected the viability | inhibited the formation of organoid colonies | effectively silences CDK19 | effectively silences CDK19 | effectively silences CDK19 | significant reduction in the percentage of RFP positive cells | significant reduction in the percentage of RFP positive cells | significant reduction in the percentage of RFP positive cells | inhibited both the growth of the PDX | eliminated the detection of any lung metastases | prevented transduced (RFP positive) TNBC cells from metastasizing to the lungs | significantly longer
